Entries after “also recorded” stand apart in the source; their conditions may differ.
How the values were obtained:
[1] = test system: sheep model for pulmonary fibrosis, bleomycin-injured lung segments; assay: Example 2: bronchoalveolar lavage (BAL) inflammatory cell counts; format: in vivo
From the text: (§1) In this study, a total of 10 sheep were used. Fibrosis in two lung segments of each sheep in a similar manner as performed in Example 1 herein. Using this procedure (as detailed further below) the fibrosis was confined to small, isolated regions in the lungs leaving the remaining 90-95% of the healthy unaffected lungs to undertake normal respiratory function.
(§2) All sheep (n=10) in the study were challenged with 2 single doses of bleomycin (3 units) per lung segment, a fortnight apart and the animals were kept for a little over 5 weeks after the final bleomycin dose. Bleomycin is a well-known agent for inducing fibrosis in the lungs. The administration procedure involves inserting a bronchoscope into lung segments in the right and left lung, and then slowly infusing the bleomycin into two segments as shown in FIG. 2 via the bronchoscope biopsy port.
(§3) In the study detailed in Example 1 herein, the dose-rate of pinocembrin was 7 mg pinocembrin per sheep, per week.
(§4) For control purposes the lung segment in the opposite lung was used as a bleomycin-positive, without drug, control, as indicated in FIG. 1. The bioactive molecules in vehicle, were delivered as 5 ml infusions through the biopsy port of the bronchoscope. Note that to nullify any small differences (e.g. physiological or anatomical etc.) between the left and right lungs, the infusions of pinocembrin were randomized between the left and right caudal lung segments. Half the animals (5 sheep) received pinocembrin to the right caudal lung segments, while the other 5 sheep received pinocembrin to the left caudal lung segments. The right medial lung segment was left untreated and used for healthy lung control tissue which was sampled at autopsy (FIG. 2).
For each of the bronchoalveolar (BAL) samplings at the timepoints listed in FIG. 1, the endoscope was manipulated into a specific lung-segment for sampling, usually passing through about 3-4 airway branches. For BAL sampling, 10 ml of sterile saline was infused through the biopsy port of the endoscope into the specific lung-segment and then recovered into a syringe through the same port. This procedure recovered between 3 and 5 ml of BAL fluid. The sampling method collects cells for analyses from the small airway and alveolar lumens of the specific lung-segment where the bronchoscope was navigated to. The BAL cells from each segment were centrifuged onto glass slides and stained for differential cell counting of inflammatory cells with Hem-Quik.

[2] = test system: sheep model for pulmonary fibrosis, bleomycin-injured lung segments; assay: Example 2: histopathology scoring (H&E; inflammation, fibrosis, overall pathology); format: in vivo
Protocol: Histopathology of lung parenchyma was assessed by an experienced pathologist blinded to the treatment groups using a semi-quantitative scoring system. Briefly, the criteria used gives score indices separately for both inflammation and fibrosis pathology, and these score indices added together give an ‘overall pathology score’.
as §1, §2, §3, §4
Following euthanasia, the lungs were removed, and targeted lung-segments identified and carefully dissected free from surrounding tissue. Individual segments were then inflated with a 1:1 mixture of Optimal Cutting Temperature Compound (OCT, ProSciTech Ltd Pty) and sterile PBS solution, under pressure of approximately 20 cm/H2O. Several serial transverse sections of the inflated segment were fixed in 10% neutral-buffered formalin and processed in paraffin for histopathological assessment. Remaining lung slices were embedded in OCT and frozen in cryo-moulds on aluminium boats floating on liquid nitrogen for immunochemistry analyses.
Paraffin-embedded tissue sections (5 μm) were stained with haematoxylin and eosin Y (H&E) for general histology and with Masson's trichrome staining to identify changes to collagen content within the lung parenchyma.
Histopathology of the lung parenchyma was assessed using a semi-quantitative scoring system as outline in Example 1 herein. […] For each H&E stained section, 10 consecutive, non-overlapping fields at ×20 magnification were graded based on the scoring criteria for fibrosis, inflammation and overall pathology scores as outlined in Example 1 herein. The areas were selected away from large airways and major blood vessels. Scores from all ten fields were then averaged to give representative scores for the parameters assessed in the sectioned lung segment.

[3] = week 12, vs bleomycin alone without pinocembrin, 4 weekly infusions of 7 mg, n=10 sheep
[4] = individual sheep data, 10 sheep
[5] = vs segments which received bleomycin infusion only, 4 weekly treatments of 7 mg, n=10 sheep

SMILES: O=C1CC(c2ccccc2)Oc2cc(O)cc(O)c21 (centres unmarked) [pinocembrin, 5,7-Dihydroxy-2-Phenyl-2,3-Dihydro-4H-Chromen-4-One]
- sheep with lower inflammatory cell numbers in BAL fluid ([1]; individual sheep data, vs bleomycin without pinocembrin, 10 sheep): Nine out of ten
- neutrophil, % of total BAL cells ([1]; pinocembrin-treated bleomycin-injured lung segments (7.4% in bleomycin without drug)): 3.7%
- numbers of inflammatory cells (neutrophils, eosinophils and lymphocytes) in BAL fluid [1, 3]: significantly lower; also recorded: significantly reduces
- numbers of neutrophils in BAL fluid [1, 3]: significantly lower
- sheep having improved fibrosis scores [2, 4]: eight out of ten
- sheep having improved inflammation scores [2, 4]: nine out of ten
- sheep having improved overall pathology scores [2, 4]: Nine out of ten
- fibrosis score (histopathology), difference ([2]; lower than segments which received bleomycin infusion only, 4 weekly treatments of 7 mg, n=10 sheep): not statistically significant
- pathology scores (all three parameters) compared with untreated control lung segments ([2]; pinocembrin-treated bleomycin segments vs untreated control segments, n=10 sheep): significantly higher
- inflammation score (histopathology) [2, 5]: significantly lower; also recorded: significantly improved
- overall pathology score (histopathology) [2, 5]: significantly lower; also recorded: significantly improved
